Laboratory results reported in US11066396B2 (priority 2016, dated 2021).
pIC50: −log10 of the molar value.

What was measured:
[1] = target: HDAC1 (Homo sapiens (Human), UniProt Q13547); settings: read-out: HDAC1 IC50
[2] = target: HDAC8 (Homo sapiens (Human), UniProt Q9BY41); settings: read-out: HDAC8 IC50
HDAC8, sequence (Q9BY41 whole entry): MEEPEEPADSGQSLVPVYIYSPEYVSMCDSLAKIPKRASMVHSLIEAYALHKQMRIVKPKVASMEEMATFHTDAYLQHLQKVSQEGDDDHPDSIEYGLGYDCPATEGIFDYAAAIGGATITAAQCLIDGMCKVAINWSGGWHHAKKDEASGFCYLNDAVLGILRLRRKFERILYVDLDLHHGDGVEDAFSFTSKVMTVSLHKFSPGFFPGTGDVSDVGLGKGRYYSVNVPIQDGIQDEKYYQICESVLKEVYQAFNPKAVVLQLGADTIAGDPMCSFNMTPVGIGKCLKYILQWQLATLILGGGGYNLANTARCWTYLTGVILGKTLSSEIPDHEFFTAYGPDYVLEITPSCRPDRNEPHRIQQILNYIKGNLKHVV

HDAC1, sequence (Q13547 whole entry): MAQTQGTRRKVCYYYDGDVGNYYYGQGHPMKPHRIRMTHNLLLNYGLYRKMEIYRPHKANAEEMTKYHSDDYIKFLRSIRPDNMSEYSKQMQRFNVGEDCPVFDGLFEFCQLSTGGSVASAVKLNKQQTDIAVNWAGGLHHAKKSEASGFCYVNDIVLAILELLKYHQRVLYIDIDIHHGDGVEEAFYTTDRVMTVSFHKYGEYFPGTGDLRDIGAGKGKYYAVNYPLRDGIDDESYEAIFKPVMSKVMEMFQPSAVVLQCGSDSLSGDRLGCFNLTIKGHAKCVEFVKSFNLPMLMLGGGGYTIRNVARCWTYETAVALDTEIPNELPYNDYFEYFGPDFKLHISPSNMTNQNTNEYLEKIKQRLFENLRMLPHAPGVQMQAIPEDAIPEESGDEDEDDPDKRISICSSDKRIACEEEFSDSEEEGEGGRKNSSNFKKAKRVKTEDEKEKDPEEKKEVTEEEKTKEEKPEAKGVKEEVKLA

CC(C)c1ncncc1C(=O)N(Cc1ccc(-c2noc(C(F)(F)F)n2)cn1)c1cccc(F)c1 [Example 399, N-(3-fluorophenyl)-4-(1-methylethyl)-N-({5-[5-(trifluoromethyl)-1,2,4-oxadiazol-3-yl]pyridin-2-yl}methyl)pyrimidine-5-carboxamide]
pIC50 [1]: 6.03 | pIC50 [2]: 5.51

Cc1ccc(C(=O)N(Cc2ccc(-c3noc(C(F)(F)F)n3)cn2)c2cccc(F)c2)nn1 [Example 400, N-(3-fluorophenyl)-6-methyl-N-({5-[5-(trifluoromethyl)-1,2,4-oxadiazol-3-yl]pyridin-2-yl}methyl)pyridazine-3-carboxamide]
pIC50 [1]: 6.59 | pIC50 [2]: 5.49

Cc1ncc(C(=O)N(Cc2ccc(-c3noc(C(F)(F)F)n3)cn2)c2cccc(F)c2)cn1 [Example 401, N-(3-fluorophenyl)-2-methyl-N-({5-[5-(trifluoromethyl)-1,2,4-oxadiazol-3-yl]pyridin-2-yl}methyl)pyrimidine-5-carboxamide]
pIC50 [1]: 6.54 | pIC50 [2]: 5.48

CS(=O)(=O)N1CC(C(=O)N(Cc2ccc(-c3noc(C(F)(F)F)n3)cn2)c2cccc(F)c2)C1 [Example 404, N-(3-fluorophenyl)-1-(methylsulfonyl)-N-({5-[5-(trifluoromethyl)-1,2,4-oxadiazol-3-yl]pyridin-2-yl}methyl)azetidine-3-carboxamide]
pIC50 [1]: 6.55 | pIC50 [2]: 5.89

O=C(C1CCN(C2CC2)CC1)N(Cc1ccc(-c2noc(C(F)(F)F)n2)cn1)c1cccc(F)c1 [Example 406, 1-cyclopropyl-N-(3-fluorophenyl)-N-({5-[5-(trifluoromethyl)-1,2,4-oxadiazol-3-yl]pyridin-2-yl}methyl)piperidine-4-carboxamide]
pIC50 [1]: 6.57 | pIC50 [2]: 5.74

FC(F)(F)c1nc(-c2ccc(CNc3ccc4c[nH]nc4c3)cc2)no1 [Example 411, N-{4-[5-(trifluoromethyl)-1,2,4-oxadiazol-3-yl]benzyl}-2H-indazol-6-amine]
pIC50 [1]: 6.00 | pIC50 [2]: 5.66

FC(F)(F)c1nc(-c2ccc(CNc3cccc4[nH]ncc34)cc2)no1 [Example 415, N-{4-[5-(trifluoromethyl)-1,2,4-oxadiazol-3-yl]benzyl}-1H-indazol-4-amine]
pIC50 [1]: 5.80 | pIC50 [2]: 5.60

FC(F)(F)c1nc(-c2ccc(CNc3cnccn3)cc2)no1 [Example 417, N-{4-[5-(trifluoromethyl)-1,2,4-oxadiazol-3-yl]benzyl}pyrazin-2-amine]
pIC50 [1]: 5.59 | pIC50 [2]: 5.72

OCc1ccnc(NCc2ccc(-c3noc(C(F)(F)F)n3)cc2)n1 [Example 418, [2-({4-[5-(trifluoromethyl)-1,2,4-oxadiazol-3-yl]benzyl}amino)pyrimidin-4-yl]methanol]
pIC50 [1]: 5.44 | pIC50 [2]: 5.49

FC(F)(F)c1nc(-c2ccc(CNc3cncnc3)cc2)no1 [Example 419, N-{4-[5-(trifluoromethyl)-1,2,4-oxadiazol-3-yl]benzyl}pyrimidin-5-amine]
pIC50 [1]: 5.59 | pIC50 [2]: 5.72

COCc1cc(=O)n(Cc2ccc(-c3noc(C(F)(F)F)n3)cn2)c2ccccc12 [Example 420, 4-(methoxymethyl)-1-({5-[5-(trifluoromethyl)-1,2,4-oxadiazol-3-yl]pyridin-2-yl}methyl)quinolin-2(1H)-one]
pIC50 [1]: 6.96 | pIC50 [2]: 6.00

FC(F)(F)c1nc(-c2ccnc(OC[C@@H]3C[C@@H]3c3ncccn3)c2)no1 [Example 424, 2-{(1S,2R)-2-[({4-[5-(trifluoromethyl)-1,2,4-oxadiazol-3-yl]pyridin-2-yl}oxy)methyl]cyclopropyl}pyrimidine]
pIC50 [1]: 5.59 | pIC50 [2]: 6.49

COCCN1Cc2ccccc2N(Cc2ccc(-c3noc(C(F)(F)F)n3)cn2)C1=O [Example 429, 3-(2-methoxyethyl)-1-({5-[5-(trifluoromethyl)-1,2,4-oxadiazol-3-yl]pyridin-2-yl}methyl)-3,4-dihydroquinazolin-2(1H)-one]
pIC50 [1]: 6.34 | pIC50 [2]: 5.64

FC(F)(F)c1nc(-c2ccc(CNc3[nH]nc4ccccc34)nc2)no1 [Example 430, N-({5-[5-(trifluoromethyl)-1,2,4-oxadiazol-3-yl]pyridin-2-yl}methyl)-2H-indazol-3-amine]
pIC50 [1]: 6.28 | pIC50 [2]: 5.70

FC(F)(F)c1nc(-c2ccc(CNc3c[nH]nn3)nc2)no1 [Example 431, N-({5-[5-(trifluoromethyl)-1,2,4-oxadiazol-3-yl]pyridin-2-yl}methyl)-1H-1,2,3-triazol-4-amine]
pIC50 [1]: 5.37 | pIC50 [2]: 5.72

FC(F)(F)c1nc(-c2ccc(CNc3cnsc3)nc2)no1 [Example 433, N-({5-[5-(trifluoromethyl)-1,2,4-oxadiazol-3-yl]pyridin-2-yl}methyl)isothiazol-4-amine]
pIC50 [1]: 6.05 | pIC50 [2]: 6.05

FC(F)(F)c1nc(-c2ccc(CNc3cnoc3)nc2)no1 [Example 434, N-({5-[5-(trifluoromethyl)-1,2,4-oxadiazol-3-yl]pyridin-2-yl}methyl)isoxazol-4-amine]
pIC50 [1]: 5.96 | pIC50 [2]: 5.92

C[Si]1(C)CCC(NCc2ccc(-c3noc(C(F)(F)F)n3)cn2)CC1 [Example 436, 1,1-dimethyl-N-({5-[5-(trifluoromethyl)-1,2,4-oxadiazol-3-yl]pyridin-2-yl}methyl)silinan-4-amine]
pIC50 [1]: 5.92 | pIC50 [2]: 5.38

CN(C)C(=O)c1cccc(NCc2ccc(-c3noc(C(F)(F)F)n3)cn2)c1 [Example 438, N,N-dimethyl-3-[({5-[5-(trifluoromethyl)-1,2,4-oxadiazol-3-yl]pyridin-2-yl}methyl)amino]benzamide]
pIC50 [1]: 6.28 | pIC50 [2]: 6.00

O=C(NCc1ccccn1)c1cccc(NCc2ccc(-c3noc(C(F)(F)F)n3)cn2)c1 [Example 441, N-(pyridin-2-ylmethyl)-3-[({5-[5-(trifluoromethyl)-1,2,4-oxadiazol-3-yl]pyridin-2-yl}methyl)amino]benzamide]
pIC50 [1]: 6.31 | pIC50 [2]: 6.13

NC(=O)c1ccnc(NCc2ccc(-c3noc(C(F)(F)F)n3)cn2)c1 [Example 442, 2-[({5-[5-(trifluoromethyl)-1,2,4-oxadiazol-3-yl]pyridin-2-yl}methyl)amino]pyridine-4-carboxamide]
pIC50 [1]: 6.55 | pIC50 [2]: 6.12

CC(C)NC(=O)c1ccccc1NCc1ccc(-c2noc(C(F)(F)F)n2)cn1 [Example 443, N-(1-methylethyl)-2-[({5-[5-(trifluoromethyl)-1,2,4-oxadiazol-3-yl]pyridin-2-yl}methyl)amino]benzamide]
pIC50 [1]: 5.92 | pIC50 [2]: 5.85

CNC(=O)c1ccccc1NCc1ccc(-c2noc(C(F)(F)F)n2)cn1 [Example 444, N-methyl-2-[({5-[5-(trifluoromethyl)-1,2,4-oxadiazol-3-yl]pyridin-2-yl}methyl)amino]benzamide]
pIC50 [1]: 6.46 | pIC50 [2]: 5.60

NC(=O)c1ncccc1NCc1ccc(-c2noc(C(F)(F)F)n2)cn1 [Example 445, 3-[({5-[5-(trifluoromethyl)-1,2,4-oxadiazol-3-yl]pyridin-2-yl}methyl)amino]pyridine-2-carboxamide]
pIC50 [1]: 6.07 | pIC50 [2]: 5.66

O=C(NC1CC1)c1ccccc1NCc1ccc(-c2noc(C(F)(F)F)n2)cn1 [Example 446, N-cyclopropyl-2-[({5-[5-(trifluoromethyl)-1,2,4-oxadiazol-3-yl]pyridin-2-yl}methyl)amino]benzamide]
pIC50 [1]: 6.62 | pIC50 [2]: 5.80

O=C(Nc1ccccc1)c1ccccc1NCc1ccc(-c2noc(C(F)(F)F)n2)cn1 [Example 447, N-phenyl-2-[({5-[5-(trifluoromethyl)-1,2,4-oxadiazol-3-yl]pyridin-2-yl}methyl)amino]benzamide]
pIC50 [1]: 6.01 | pIC50 [2]: 6.13

NC(=O)c1cccc(NCc2ccc(-c3noc(C(F)(F)F)n3)cn2)c1 [Example 449, 3-[({5-[5-(trifluoromethyl)-1,2,4-oxadiazol-3-yl]pyridin-2-yl}methyl)amino]benzamide]
pIC50 [1]: 6.51 | pIC50 [2]: 5.72

O=C1COC[C@@H](CNCc2ccc(-c3noc(C(F)(F)F)n3)cn2)N1 [Example 450, (5R)-5-{[({5-[5-(trifluoromethyl)-1,2,4-oxadiazol-3-yl]pyridin-2-yl}methyl)amino]methyl}morpholin-3-one]
pIC50 [1]: 5.55 | pIC50 [2]: 5.55

O=C1COC[C@H](CNCc2ccc(-c3noc(C(F)(F)F)n3)cn2)N1 [Example 451, (5S)-5-{[({5-[5-(trifluoromethyl)-1,2,4-oxadiazol-3-yl]pyridin-2-yl}methyl)amino]methyl}morpholin-3-one]
pIC50 [1]: 5.60 | pIC50 [2]: 5.62

FC(F)(F)c1nc(-c2ccc(COc3ncccn3)cc2)no1 [Example 457, 2-({4-[5-(trifluoromethyl)-1,2,4-oxadiazol-3-yl]benzyl}oxy)pyrimidine]
pIC50 [1]: 5.59 | pIC50 [2]: 6.14

FC(F)(F)c1nc(-c2ccc(COc3ccc4ccccc4n3)nc2)no1 [Example 461, 2-({5-[5-(trifluoromethyl)-1,2,4-oxadiazol-3-yl]pyridin-2-yl}methoxy)quinoline]
pIC50 [1]: 6.30 | pIC50 [2]: 4.68

CC(C)(C)OC(=O)C1COCC(=O)N1c1ccc(-c2noc(C(F)(F)F)n2)c(F)c1 (centres unmarked) [Example 468, tert-butyl 4-{3-fluoro-4-[5-(trifluoromethyl)-1,2,4-oxadiazol-3-yl]phenyl}-5-oxomorpholine-3-carboxylate]
pIC50 [1]: 6.03 | pIC50 [2]: 5.26

O=C(C1CCS(=O)(=O)CC1)N(Cc1cnc(-c2noc(C(F)(F)F)n2)cn1)c1cccc(C(F)(F)F)c1 [Example 470, N-({5-[5-(trifluoromethyl)-1,2,4-oxadiazol-3-yl]pyrazin-2-yl}methyl)-N-[3-(trifluoromethyl)phenyl]tetrahydro-2H-thiopyran-4-carboxamide 1,1-dioxide]
pIC50 [1]: 5.96 | pIC50 [2]: 5.00

COC(=O)N1CC(=O)N(Cc2ccc(-c3noc(C(F)(F)F)n3)cn2)c2ccccc21 [Example 472, methyl 3-oxo-4-({5-[5-(trifluoromethyl)-1,2,4-oxadiazol-3-yl]pyridin-2-yl}methyl)-3,4-dihydroquinoxaline-1(2H)-carboxylate]
pIC50 [1]: 6.49 | pIC50 [2]: 5.85
